Measured values: PMC8308784, “Novel Purine Chemotypes with Activity against Plasmodium falciparum and Trypanosoma cruzi” (Pharmaceuticals, 2021)
Like-named read-outs stand apart in the source and are kept apart here.

Key:
Vero cells = assay: Vero cell toxicity assay (alamarBlue); assay type: cell-based, green monkey; conditions: 4 days; minimum value of the 95% CI, except BNZ (mean (SD))
Protocol: Human erythrocytes were purified from B+ Rh+ blood samples and maintained at 4 °C in incomplete RPMI medium. Vero (green monkey kidney epithelial cells), LLC-MK2 (Rhesus monkey kidney epithelial cells), and HepG2 (human liver epithelial cells) cultures were cultivated in DMEM supplemented with 1% penicillin–streptomycin (PS) and 10% heat-inactivated fetal bovine serum (FBS) at 37 °C, 5% CO2, and >95% humidity, as described in [31]. HepG2 cells were also supplemented with 10% non-essential amino acids. Vero and MK2 cells were passaged twice per week at 1:12 ratios, while HepG2 cells were passaged at a 1:8 ratio.
Vero and HepG2 cells were detached, centrifuged, and resuspended in DMEM without phenol red. Cell viability was checked upon cell counting with trypan blue staining. Then, Vero and HepG2 cells were diluted at a concentration of 5 × 10^5 and 3.2 × 10^5 cells per mL, respectively, before adding 100 µL per well to the 96-well plate. Each run contained its own negative (untreated cells) and positive (medium alone) controls. Plates were incubated at 37 °C for 4 days in the case of Vero, or 2 in the case of HepG2 cells. Assay readout was made by adding 50 µL per well of a PBS solution containing 10% alamarBlue reagent (Thermo Fisher Scientific); then, plates were incubated for another 6 h at 37 °C, before recording the fluorescence intensity with a Tecan Infinite M Nano+ reader (excitation: 530 nm, emission: 590 nm).
(§1) Absorbance values derived from the anti-T. cruzi assays and fluorescence values from the anti-P. falciparum and cell toxicity assays were normalized to the controls. In the primary screening at three fixed doses, the compounds’ inhibitory activity was expressed as a percentage of the negative control (100% parasitic growth). In dose–response assays, the compounds’ IC50 and TC50 values were determined with GraphPad Prism 7 software (version 7.00, 2016), using a non-linear regression analysis model defined by the following equation: Y=100 ÷(1+10^((LogIC50−X)×HillSlope))

[1] = tested on: T. cruzi intracellular amastigotes; assay: Antiamastigote growth inhibition assay; assay type: cell-based; conditions: intracellular amastigotes in Vero cells, mean (SD), read-out: T. cruzi IC50 b (antiamastigote assay)
Protocol: Vero cells were seeded in T-175 flasks (5 × 10^6 cells per flask) in DMEM supplemented with 1% penicillin–streptomycin and 10% FBS, and cultured for 24 h. Then, cells were washed once with PBS, and free-swimming trypomastigotes (1 × 10^7 trypomastigotes per flask; MOI = 1) in assay medium were added and allowed 18 h to infect. After that, infected cell monolayers were washed with PBS and detached. Cells were counted and diluted to a concentration of 5 × 10^5 cells per mL, before adding 100 µL per well to test plates already containing the drugs dispensed as described above. In all cases, we included BNZ as control drug, and each plate contained its own negative (Vero cells and parasites) and positive (Vero cells) controls.
as §1

P. falciparum 3D7 = assay: P. falciparum primary screening at three fixed concentrations; assay type: cell-based; conditions: average of at least three experiments; for activity at 1 µM / activity at 10 µM / activity at 100 µM: Plasmodium falciparum, read-out: Primary screening, parasite growth relative to the negative control; for activity at 1 µM: 3D7, compound at 1 µM; for activity at 10 µM: 3D7, compound at 10 µM; for activity at 100 µM: 3D7, compound at 100 µM
[2] = tested on: T. cruzi Tulahuen strain expressing β-galactosidase; assay: anti-T. cruzi dose-response growth inhibition assay (Vero cells plus trypomastigotes, CPRG readout); assay type: cell-based; conditions: Vero cells plus trypomastigotes, MOI 1, four days, mean (SD), read-out: T. cruzi IC50 a (anti-T. cruzi assay)
[3] = Trypanosoma cruzi, TULAHUEN, 96 h

Row | Structure (SMILES) | Vero Cells TC50 (Vero cells) | IC50 ([1]; Trypanosoma cruzi) | activity at 1 µM (P. falciparum 3D7) | activity at 10 µM (P. falciparum 3D7) | activity at 100 µM (P. falciparum 3D7) | IC50 [2, 3] | IC50 [1] | Primary screening, parasite growth relative to the negative control (P. falciparum 3D7; compound at 1 µM) | Primary screening, parasite growth relative to the negative control (P. falciparum 3D7; compound at 10 µM) | Primary screening, parasite growth relative to the negative control (P. falciparum 3D7; compound at 100 µM) | IC50 [2]
1 | CC(C)(C)n1c(-c2ccccc2)nc2c(OCc3ccccc3)ncnc21 [Compound 6D] | >150 µM | 3.78 µM | 117% | 114% | 13.2% | 5.56 µM | – | – | – | – | –
2 | c1ccc(CCn2c(-c3ccccc3)nc3c(OCc4ccccc4)ncnc32)cc1 [Compound 6g] | >150 µM | – | – | – | – | – | 19.6 µM | 100.79% | 94.94% | 24.45% | 3.97 µM
3 | COC(=O)c1ccccc1-n1cc(COc2ncnc3c2nc(-c2ccccc2)n3N(C)C)nn1 [Compound 34] | >6000 µM | 4.24 µM | 95.6% | 85% | 43.2% | 4.12 µM | – | – | – | – | –
